Assay results: US9458465B2, “Compositions and methods to modulate cell membrane resealing” (RUTGERS, THE STATE UNIVERSITY OF NEW JERSEY, priority 2007, dated 2016)
Changes are numbered by the printed parent chain. Numbers in names are those of the source.

What was measured:
[1] = system: FDB muscle fibers from wild type (WT) mice; assay: FM1-43 dye entry after UV-laser damage, wild type FDB muscle fibers; assay type: cell-based
Protocol: (§1) FIG. 20. Protective effect of zinc on membrane repair is lost in mg53−/− skeletal muscle. (a) individual flexor digitorum brevis (FDB) muscle fibers were isolated from wild type (WT) mice (3-6 months). A strong UV laser was applied to the FDB fiber that caused local damage to the muscle (arrow). Entry of FM1-43 fluorescent dye (2.5 μM) was used as an indicator for the measurement of membrane repair capacity. The images were taken 200 s following UV irradiation (control). […] (d) Schematic diagram of zinc-binding motifs in MG53. The amino-terminus of MG53 contains two putative zinc-binding motifs: one located at the RING motif (a.a. 1-56, human cDNA), and the other located at the B-box motif (a.a. 86-117, human cDNA). The specific amino acids that participate in zinc-binding are indicated.
as §1, with “Protective” for “FIG. 20. Protective”, “To access membrane repair capacity,” for “(a)”, “months) (FIG. 20a).” for “months).”, “Summary data for panel a and b (FIG. 20c). […]” for “(d)”, “indicated (FIG. 20d).” for “indicated.”

[2] = system: C2C12 cells expressing GFP-MG53; assay: Repair of acute membrane damage: translocation to microelectrode injury site; assay type: cell-based, murine; conditions: for Membrane Repair (+Zn-HPT): 2 μM Zn-HPT; for Membrane Repair (−Zn-HPT): extracellular solution with nominal free zinc
Protocol: To follow the process of intracellular vesicle translocation associated with repair of acute membrane damage, GFP-MG53 fusion protein was expressed in C2C12 myoblast cells (FIG. 21a). […]
Cell culture—The C2C12 murine myoblast cell line used for all studies was purchased from the American Type Culture Collection (Manassas, Va.). Cells were grown in a humidified environment at 37° C. and 5% CO2 in DMEM medium for C2C12 or Ham's F12 medium for CHO cells supplemented with 10% fetal bovine serum, 100 units/ml penicillin and 100 ug/ml streptomycin. In order to induce myotube differentiation, C2C12 myoblasts were grown to confluence and the medium was switched to DMEM containing 2% horse serum, penicillin (100 U/ml), streptomycin (100 μg/ml). For transient transfections, C2C12 myoblasts or CHO cells were plated at 70% confluence in glass-bottom dishes. After 24 hours, cells were transfected with plasmids described above using GeneJammer reagent (Stratagene). Cells were visualized by live cell confocal imaging at 24-48 hours after transfection or at times indicated for individual experiments. In some experiments, C2C12 myoblasts were allowed to differentiate into myotubes for the indicated time before observation.
Live cell imaging—To monitor intracellular trafficking of GFP-MG53 either CHO or C2C12 cells were cultured in glass-bottom dishes (Bioptechs Inc.) and transfected with the plasmids described above. Fluorescence images (512×512) were captured at 3.18 s/frame using a BioRad 2100 Radiance laser scanning confocal microscope with a 63×1.3NA oil immersion objective.

[3] = system: FDB muscle fibers from mg53−/− mice; assay: FM1-43 dye entry after UV-laser damage, mg53−/− FDB muscle fibers; assay type: cell-based
Protocol: as §1
as §1, with “Protective” for “FIG. 20. Protective”, “To access membrane repair capacity,” for “(a)”, “months) (FIG. 20a).” for “months).”, “Summary data for panel a and b (FIG. 20c). […]” for “(d)”, “indicated (FIG. 20d).” for “indicated.”

[4] = system: HEK293 cells; assay: LDH release after glass microbead damage, HEK293; assay type: cell-based, human
Protocol: Recombinant MG53 can protect kidney cells from mechanical cell membrane damage. HEK293 cells (8×10^4) were treated with glass microbeads to induce mechanical damage (FIG. 37). Different does of recombinant human MG53 or vehicle control was applied to the samples when glass beads were added to the media. Cells were rotated on an orbital shaker and then the supernatant was analyzed for LDH levels.
(§2) Externally applied recombinant MG53 requires phosphatidylserine (PS) binding to reseal damaged membranes. HEK293 cells were treated with recombinant human MG53 or vehicle and them damaged by shaking in the presence of glass microbeads (black bars) (FIG. 40). Membrane damage is measured by LDH release from cells that is recorded by colormetric assay recorded at 488 nm. […] Thus, MG53 must be able to bind exposed PS on damaged cells in order to facilitate membrane repair. * p<0.05
as §2, with “HEK293” for “Externally applied recombinant MG53 requires phosphatidylserine (PS) binding to reseal damaged membranes. HEK293”, “41).” for “40).”

[5] = system: mg53−/− myotubes; assay: Membrane repair in transfected mg53−/− myotubes; assay type: cell-based, mice; conditions: transfected mg53−/− myotubes; UV injury
From the text: The entry of FM4-64, a red-shifted variant of FM1-43, was used as an index of membrane repair capacity in mg53−/− myotubes transfected with GFP-MG53 and GFP-C242A. Following UV-bleaching of the green fluorescence, rapid translocation of GFP-MG53 took place at the injury site, whereas GFP-C242A remained static due to its defective oligomerization properties (FIG. 16E, 17A).
Similar defects with GFP-C29L were also observed in C2C12 myotubes (FIG. 18e, middle).

[6] = C2C12 cells, listed as GFP-C29L/C105S
[7] = C2C12 cells, listed as GFP-C105S

## O[C@H](CS)[C@H](O)CS (racemic) [DTT, dithiothreitol, reference compound]
[1]; isolated muscle fibers, DTT in the extracellular solution
  membrane resealing (entry of FM-143 dye): prevents membrane resealing
[2]; reduced extracellular environment (+DTT), 5 mM DTT
  translocation of GFP-MG53 toward the injury site: largely disrupted

## O=C([O-])CN(CCN(CC(=O)[O-])CC(=O)[O-])CC(=O)[O-].[Ca+2].[Na+].[Na+] [Ca-EDTA]
[1]; WT muscle, Ca-EDTA 100 μM
  membrane repair capacity (FM1-43 dye entry): compromised membrane repair capacity
[3]; mg53−/− muscle, Ca-EDTA
  membrane repair capacity: did not produce any significant changes in membrane repair capacity

## c1ccc(CN(CCN(Cc2ccccn2)Cc2ccccn2)Cc2ccccn2)nc1 [TPEN, N,N,N,N-tetrakis(2-pyridyl-methyl)ethylenediamine]
[1]; WT fibers, 40 μM TPEN
  membrane repair capacity (FM1-43 dye entry): compromised membrane repair capacity
[2]; 20 μM TPEN in the extracellular solution
  translocation of GFP-MG53 containing vesicles toward the mechanical injury site: completely abolished the translocation
[3]; mg53−/− fibers, +TPEN
  membrane repair capacity (FM1-43 dye entry): did not produce more entry of FM1-43 dye

## Thimerosal [reference compound]
[2]; oxidizing agent Thimerosal in the extracellular solution
  translocation of GFP-MG53 to injury sites: increased translocation

## phosphatidylserine [phosphatidylserine (PS), reference compound]
[4]; simultaneous treatment with recombinant human MG53
  effect on MG53 resealing of plasma membrane: can prevent resealing of plasma membrane

B1: C242A: MG53 mutant, conserved cysteine 242 mutated into alanine (protein)
chain: MSAAPGLLRQELSCPLCLQLFDAPVTAECGHSFCRACLIRVAGEPAADGTVACPCCQAPTRPQALSTNLQLSRLVEGLAQVPQGHCEEHLDPLSIYCEQDRTLVCGVCASLGSHRGHRLLPAAEAQARLKTQLPQQKMQLQEACMRKEKTVAVLEHQLVEVEETVRQFRGAVGEQLGKMRMFLAALESSLDREAERVRGDAGVALRRELSSLNSYLEQLRQMEKVLEEVADKPQTEFLMKFALVTSRLQKILSESPPPARLDIQLPVISDDFKFQVWKKMFRALMPALEELTFDPSSAHPSLVVSSSGRRVECSDQKAPPAGEDTRQFDKAVAVVAQQLLSQGEHYWEVEVGDKPRWALGVMAADASRRGRLHAVPSQGLWLLGLRDGKILEAHVEAKEPRALRTPERPPARIGLYLSFADGVLAFYDASNPDVLTPIFSFHERLPGPVYPIFDVCWHDKGKNAQPLLLVGPEQEQA
modifications: left off: large carriers
notes: MG53 mutant, conserved cysteine 242 mutated into alanine
[1]; overexpression in adult wt muscle fibers, compared with GFP-MG53
  sarcolemmal membrane repair function: inhibited sarcolemmal membrane repair function
[2]; C2C12 cells, acute membrane damage
  translocation to injury site and membrane repair function of GFP fusion protein: completely disrupted its ability to facilitate the membrane repair process
[5]
  entry of FM4-64 (membrane repair capacity): not able to restore membrane integrity following injury

B2: C29L/C105S: MG53 double mutant of RING motif (C29L) and B-box motif (C105S) (protein)
chain: B1 chain with C29L, C105S, A242C
modifications: left off: large carriers
[2]; [6]
  Membrane Repair (+Zn-HPT): completely defective in repair of acute membrane damage
  Membrane Repair (−Zn-HPT): completely defective in repair of acute membrane damage

B3: C105S: MG53 single mutation of the B-box motif (protein)
chain: B1 chain with C105S, A242C
modifications: left off: large carriers
notes: MG53 single mutation of the B-box motif
[2]; [7]
  Membrane Repair (+Zn-HPT): partial rescue of the membrane repair capacity
  Membrane Repair (−Zn-HPT): could not move to the acute injury site

B4: Annexin V: a phosphatidylserine (PS) binding protein (protein, UniProt P08758 2-320, looked up)
Annexin A5: AQVLRGTVTDFPGFDERADAETLRKAMKGLGTDEESILTLLTSRSNAQRQEISAAFKTLFGRDLLDDLKSELTGKFEKLIVALMKPSRLYDAYELKHALKGAGTNEKVLTEIIASRTPEELRAIKQVYEEEYGSSLEDDVVGDTSGYYQRMLVVLLQANRDPDAGIDEAQVEQDAQALFQAGELKWGTDEEKFITIFGTRSVSHLRKVFDKYMTISGFQIEETIDRETSGNLEQLLLAVVKSIRSIPAYLAETLYYAMKGAGTDDHTLIRVMVSRSEIDLFNIRKEFRKNFATSLYSMIKGDTSGDYKKALLLLCGEDD
[4]; excess (5:1), simultaneous with recombinant human MG53
  effect on MG53 resealing of plasma membrane: can prevent resealing of plasma membrane
